Molecules are shown by their SMILES. pKi: −log10 of the molar value.

human plasma kallikrein, sequence (P03952 391-638): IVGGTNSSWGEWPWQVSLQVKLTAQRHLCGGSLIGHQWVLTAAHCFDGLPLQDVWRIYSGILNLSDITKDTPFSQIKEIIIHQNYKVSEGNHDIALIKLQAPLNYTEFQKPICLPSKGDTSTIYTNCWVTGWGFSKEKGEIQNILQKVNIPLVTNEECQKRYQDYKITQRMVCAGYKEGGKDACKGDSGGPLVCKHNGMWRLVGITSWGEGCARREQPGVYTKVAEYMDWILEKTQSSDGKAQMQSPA
human plasma kallikrein, sequence (P03952 20-390 partner): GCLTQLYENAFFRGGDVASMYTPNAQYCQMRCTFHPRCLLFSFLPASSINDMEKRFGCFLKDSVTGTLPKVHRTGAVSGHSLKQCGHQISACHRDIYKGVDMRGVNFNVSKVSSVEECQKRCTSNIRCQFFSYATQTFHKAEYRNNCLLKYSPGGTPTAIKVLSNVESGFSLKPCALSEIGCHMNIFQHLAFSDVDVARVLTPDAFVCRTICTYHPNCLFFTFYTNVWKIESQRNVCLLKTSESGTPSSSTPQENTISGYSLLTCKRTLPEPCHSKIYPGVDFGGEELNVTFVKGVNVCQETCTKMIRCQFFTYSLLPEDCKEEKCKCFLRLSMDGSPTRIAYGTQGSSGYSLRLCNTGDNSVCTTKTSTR

The target in this assay is human plasma kallikrein (Homo sapiens (Human), UniProt P03952). Kind of assay: Plasma Kallikrein Activity Assay (chromogenic substrate S2302). The assay is classed as biochemical. The conditions noted are these: 2 nM kallikrein, 80 μM S2302, 30° C., pH 7.8; Cheng-Prusoff. Here is the method:
Plasma Kallikrein Activity Assay.
The effect of compounds of the invention on human plasma kallikrein activity was determined using the chromogenic substrates (DiaPharma Group, Inc., West Chester, Ohio, USA). In these experiments, 2 nM kallikrein (Enzyme Research Laboratories, South Bend, Ind., USA) was incubated with 80 μM S2302 (H-D-Pro-Phe-Arg-p-nitroaniline) in the absence or presence of increasing concentrations of compounds of the invention in a final volume of 200 μL Tris-HCl buffer (200 mM NaCl; 2.5 mM CaCl2; 50 mM Tris-HCl, pH 7.8).
After incubation at 30° C., the activity of kallikrein was measured as a change in absorbance at OD 405 nm using BioTek PowerWave X340 Microplate Reader (Winooski, Vt., USA). Data were analyzed using SigmaPlot software (Systat Software, Inc., San Jose, Calif., USA) (Four Parameter Logistic Curve). Ki values for the inhibitors were determined using the Cheng-Prusoff equation (Biochem. Pharmacol. 1973, 22, 3099).
The term pKi denotes −log10 of the Ki, conventionally taken in molar units. In turn, `CC(=O)O[C@@H]1C[C@H](C(=O)Nc2cc(C(N)(CCC3CC3)c3cccc(C#N)c3)ccc2F)N(C(=O)Nc2ccc(Cl)cn2)C1` (stereo partly drawn) [Compound 14g, (3R,5R)-5-(5-((+)-1-amino-1-(3-cyanophenyl)-3-cyclopropylpropyl)-2-fluorophenylcarbamoyl)-1-(5-chloropyridin-2-ylcarbamoyl)pyrrolidin-3-yl acetate] showed a pKi of under 7.00.

As for `N#Cc1cccc(C(N)(CCC2CC2)c2ccc(F)c(NC(=O)[C@H]3C[C@@H](O)CN3C(=O)Nc3ccc(Cl)cn3)c2)c1` (stereo partly drawn) [Compound 14h, (2R,4R)-N2-(5-(1-amino-1-(3-cyanophenyl)-3-cyclopropylpropyl)-2-fluorophenyl)-N1-(5-chloropyridin-2-yl)-4-hydroxypyrrolidine-1,2-dicarboxamide], the pKi was over 7.30.

`CO[C@@H]1C[C@H](C(=O)Nc2cc(C(N)(CCC3CC3)c3cccc(C#N)c3)ccc2F)N(C(=O)Nc2ccc(C#N)cc2)C1` (stereo partly drawn) [Compound 15f, (2R,4R)-N2-(5-((+)-1-amino-1-(3-cyanophenyl)-3-cyclopropylpropyl)-2-fluorophenyl)-N1-(4-cyanophenyl)-4-methoxypyrrolidine-1,2-dicarboxamide]: the negative-log Ki (pKi) was under 7.00.

`COc1ccc(NC(=O)N2C[C@H](OC)C[C@@H]2C(=O)Nc2cc(C(N)(CCC3CC3)c3cccc(C#N)c3)ccc2F)cc1` (stereo partly drawn) [Compound 16b, (2R,4R)-N2-(5-((+)-1-amino-1-(3-cyanophenyl)-3-cyclopropylpropyl)-2-fluorophenyl)-4-methoxy-N1-(4-methoxyphenyl)pyrrolidine-1,2-dicarboxamide] had a pKi of under 7.00.

`CO[C@@H]1C[C@H](C(=O)Nc2cc(C(N)(CCC3CC3)c3cccc(C#N)c3)ccc2F)N(C(=O)Nc2ccc(Cl)cc2)C1` (stereo partly drawn) [Compound 17b, (2R,4R)-N2-(5-((+)-1-amino-1-(3-cyanophenyl)-3-cyclopropylpropyl)-2-fluorophenyl)-4-methoxy-N1-(4-chlorophenyl)pyrrolidine-1,2-dicarboxamide] gave a pKi of 7.00 to 7.30.

The compound `CO[C@@H]1C[C@H](C(=O)Nc2cc(C(CCC3CC3)(N[S@+]([O-])C(C)(C)C)c3cccc(C#N)c3)ccc2F)N(C(=O)Nc2ccc(Cl)cn2)C1` (some centres unmarked) [Compound 18a] gave a pKi of over 7.30.

Compound `CO[C@@H]1C[C@H](C(=O)Nc2cc(C(N)(CCC3CC3)c3cccc(C#N)c3)ccc2F)N(C(=O)Nc2ccc(Cl)cn2)C1` (stereo partly drawn) [Compound 18b, (2R,4R)-N2-(5-((+)-1-amino-1-(3-cyanophenyl)-3-cyclopropylpropyl)-2-fluorophenyl)-N1-(5-chloropyridin-2-yl)-4-methoxypyrrolidine-1,2-dicarboxamide] showed a pKi of over 7.30.

`N#Cc1cccc(C(N)(CCC2CC2)c2ccc(F)c(NC(=O)[C@H]3C[C@@H](N)CN3C(=O)Nc3ccc(Cl)cc3)c2)c1` (stereo partly drawn) [Compound 19c, (2R,4R)-4-amino-N2-(5-((+)-1-amino-1-(3-cyanophenyl)-3-cyclopropylpropyl)-2-fluorophenyl)-N1-(4-chlorophenyl)pyrrolidine-1,2-dicarboxamide] showed a pKi of under 7.00.

In turn, `N#Cc1cccc(C(N)(CCC2CC2)c2ccc(F)c(NC(=O)[C@H]3CC(=O)CN3C(=O)Nc3ccc(Cl)cc3)c2)c1` (stereo partly drawn) [Compound 20b, (R)-N2-(5-(1-amino-1-(3-cyanophenyl)-3-cyclopropylpropyl)-2-fluorophenyl)-N1-(4-chlorophenyl)-4-oxopyrrolidine-1,2-dicarboxamide] had a negative-log Ki (pKi) of under 7.00.

Regarding `N#Cc1cccc(C(N)(CCC2CC2)c2ccc(F)c(NC(=O)[C@H]3C[C@@H](O)CN3C(=O)Nc3ccccc3)c2)c1` (stereo partly drawn) [Compound 21d, (2R,4R)-N2-(5-((+)-1-amino-1-(3-cyanophenyl)-3-cyclopropylpropyl)-2-fluorophenyl)-4-hydroxy-N1-phenylpyrrolidine-1,2-dicarboxamide], the negative-log Ki (pKi) was under 7.00.

Compound `Cc1ccc(NC(=O)N2C[C@H](O)C[C@@H]2C(=O)Nc2cc(C(N)(CCC3CC3)c3cccc(C#N)c3)ccc2F)cc1` (stereo partly drawn) [Compound 22b, (2R,4R)-N2-(5-((+)-1-amino-1-(3-cyanophenyl)-3-cyclopropylpropyl)-2-fluorophenyl)-4-hydroxy-N1-p-tolylpyrrolidine-1,2-dicarboxamide] had a pKi of under 7.00.

`N#Cc1cccc(C(N)(CCC2CC2)c2ccc(F)c(NC(=O)[C@H]3C[C@@H](O)CN3C(=O)Nc3ccc(Br)cc3)c2)c1` (stereo partly drawn) [Compound 23b, (2R,4R)-N2-(5-((+)-1-amino-1-(3-cyanophenyl)-3-cyclopropylpropyl)-2-fluorophenyl)-N1-(4-bromophenyl)-4-hydroxypyrrolidine-1,2-dicarboxamide] had a negative logarithm of the Ki (pKi) of 7.00 to 7.30.

Regarding `N#Cc1cccc(C(N)(CCC2CC2)c2ccc(F)c(NC(=O)[C@H]3C[C@@H](O)CN3C(=O)Nc3ccc(F)cc3)c2)c1` (stereo partly drawn) [Compound 24b, (2R,4R)-N2-(5-((+)-1-amino-1-(3-cyanophenyl)-3-cyclopropylpropyl)-2-fluorophenyl)-N1-(4-fluorophenyl)-4-hydroxypyrrolidine-1,2-dicarboxamide], the negative logarithm of the Ki (pKi) is under 7.00.

In the case of `N#Cc1cccc(C(N)(CCC2CC2)c2ccc(F)c(NC(=O)[C@H]3C[C@@H](O)CN3C(=O)Nc3ccc([N+](=O)[O-])cc3)c2)c1` (stereo partly drawn) [Compound 25b, (2R,4R)-N2-(5-((+)-1-amino-1-(3-cyanophenyl)-3-cyclopropylpropyl)-2-fluorophenyl)-4-hydroxy-N1-(4-nitrophenyl)pyrrolidine-1,2-dicarboxamide], the negative logarithm of the Ki (pKi) is under 7.00.

`N#Cc1cccc(C(N)(CCC2CC2)c2ccc(F)c(NC(=O)[C@H]3C[C@@H](O)CN3C(=O)Nc3cccc4ccccc34)c2)c1` (stereo partly drawn) [Compound 26b, (2R,4R)-N2-(5-((+)-1-amino-1-(3-cyanophenyl)-3-cyclopropylpropyl)-2-fluorophenyl)-4-hydroxy-N1-(naphthalen-1-yl)pyrrolidine-1,2-dicarboxamide]: the pKi is under 7.00.

Regarding `CC(C)(C)[S@@+]([O-])NC(CCC1CC1)(c1cccc(C#N)c1)c1ccc(F)c(NC(=O)[C@H]2C[C@@H](O)CN2C(=O)Nc2ccc(C(F)(F)F)cc2)c1` (stereo partly drawn) [Compound 27a, (2R,4R)-N2-(5-((+)-1-(3-cyanophenyl)-3-cyclopropyl-1-((R)-1,1-dimethylethylsulfinamido)propyl)-2-fluorophenyl)-4-hydroxy-N1-(4-(trifluoromethyl)phenyl)pyrrolidine-1,2-dicarboxamide], the pKi was under 7.00.

Turning to `N#Cc1cccc(C(N)(CCC2CC2)c2ccc(F)c(NC(=O)[C@H]3C[C@@H](O)CN3C(=O)Nc3ccc(C(F)(F)F)cc3)c2)c1` (stereo partly drawn) [Compound 27b, (2R,4R)-N2-(5-((+)-1-amino-1-(3-cyanophenyl)-3-cyclopropylpropyl)-2-fluorophenyl)-4-hydroxy-N1-(4-(trifluoromethyl)phenyl)pyrrolidine-1,2-dicarboxamide], the negative-log Ki (pKi) was under 7.00.

For the compound `N#Cc1cccc(C(N)(CCC2CC2)c2ccc(F)c(NC(=O)[C@H]3C[C@@H](O)CN3C(=O)Nc3ccc(N)cc3)c2)c1` (stereo partly drawn) [Compound 28b, (2R,4R)-N2-(5-((+)-1-amino-1-(3-cyanophenyl)-3-cyclopropylpropyl)-2-fluorophenyl)-N1-(4-aminophenyl)-4-hydroxypyrrolidine-1,2-dicarboxamide], the negative logarithm of the Ki (pKi) is under 7.00.

In turn, `N#Cc1cccc(C(N)(CCC2CC2)c2ccc(F)c(NC(=O)[C@H]3C[C@](O)(c4ccccc4)CN3)c2)c1` (stereo partly drawn) [Compound 29d, (2R,4S)-N-(5-((−)-1-amino-1-(3-cyanophenyl)-3-cyclopropylpropyl)-2-fluorophenyl)-4-hydroxy-4-phenylpyrrolidine-2-carboxamide] had a pKi of under 7.00.

For `N#Cc1cccc(C(N)(CCC2CC2)c2ccc(F)c(NC(=O)[C@H]3C[C@](O)(c4ccccc4)CN3C(=O)Nc3ccc(Cl)cn3)c2)c1` (stereo partly drawn) [Compound 29e, (2R,4S)-N2-(5-((+)-1-amino-1-(3-cyanophenyl)-3-cyclopropylpropyl)-2-fluorophenyl)-N1-(5-chloropyridin-2-yl)-4-hydroxy-4-phenylpyrrolidine-1,2-dicarboxamide], the pKi was over 7.30.

The compound `N#Cc1cccc(C(N)(CCC2CC2)c2ccc(F)c(NC(=O)[C@H]3C[C@](O)(c4ccccc4)CN3C(=O)Nc3ccc(Cl)cc3)c2)c1` (stereo partly drawn) [Compound 30a, (2R,4S)-N2-(5-((+)-1-amino-1-(3-cyanophenyl)-3-cyclopropylpropyl)-2-fluorophenyl)-N1-(4-chlorophenyl)-4-hydroxy-4-phenylpyrrolidine-1,2-dicarboxamide] gave a pKi of over 7.30.

Compound `N#Cc1cccc(C(CCC2CC2)(NC(=O)Nc2ccc(Cl)cc2)c2ccc(F)c(NC(=O)[C@H]3C[C@](O)(c4ccccc4)CN3C(=O)Nc3ccc(Cl)cc3)c2)c1` (stereo partly drawn) [Compound 30b, (2R,4S)-N1-(4-chlorophenyl)-N2-(5-((+)-1-(3-(4-chlorophenyl)ureido)-1-(3-cyanophenyl)-3-cyclopropylpropyl)-2-fluorophenyl)-4-hydroxy-4-phenylpyrrolidine-1,2-dicarboxamide] gave a negative logarithm of the Ki (pKi) of 7.00 to 7.30.

For the compound `NC(CCC1CC1)(c1ccc(F)c(NC(=O)[C@H]2C[C@](O)(c3ccccc3)CN2C(=O)Nc2ccc(Cl)cc2)c1)c1ccccn1` (stereo partly drawn) [Compound 31i, (2R,4S)-N2-(5-((−)-1-amino-3-cyclopropyl-1-(pyridin-2-yl)propyl)-2-fluorophenyl)-N1-(4-chlorophenyl)-4-hydroxy-4-phenylpyrrolidine-1,2-dicarboxamide], the pKi is over 7.30.

For the origin of these results see patent publication US10562850B2, “Human plasma kallikrein inhibitors” (priority 2015, dated 2020).
